Drawing on patent US12209092B2, “Inhibitors of GLI1 as therapeutic agents” (NEW YORK UNIVERSITY, priority 2018, dated 2025), this text covers IC50 for 25 compounds.

For this assay, the system named is Gli1-mediated transcription. The assay can be described thus: Gli1-mediated transcriptional luciferase reporter assay. The format is cell-based. The note with it: Shh-LIGHT2 cells, antagonist mode, purmorphamine 1.5 μM stimulation, 24 h. As for the experimental part: Gli1-mediated transcriptional luciferase reporter assay was performed using Shh-LIGHT2 cells in order to evaluate the effects on activation and inhibition of Gli1-mediated transcription by the compounds of the disclosure. Brief assay procedure is provided below. […] Shh-LIGHT2 cells were harvested from about 80% confluent 10-cm dish using 0.25% Trypsin-EDTA solution. Medium was removed, and cells were washed with 5 mL DPBS and aspirated. Then, 1 mL 0.25% Trypsin-EDTA solution was added to a 10-cm dish. The dish was placed in the incubator for 1-3 minutes, or until cells have detached. 3 mL of cell growth medium (DMEM, 10% FBS, 1% PenStrep, 1% sodium pyruvate, and 1% GlutaMax) was added to the 10-cm dish, and the contents were transferred to a conical tube. […] The cell assay plate was removed from incubator after cells reached confluency. The culture medium was then manually removed from the cell plates, and the plates were centrifuged at 200 rpm for 30 seconds. […] After 30 min incubation of antagonist, cells were stimulated with agonist (purmorphamine, 5 μL, 1.5 μM final), then incubate for 24 h at 37° C./5% CO2. […] Luciferase assay: After incubation, the cell assay plate was allowed to acclimate to room temperature. Then, 20 μL of Duo-Glo® Luciferase Reagent (Promega) was added to each well of cell assay plate. The plate was briefly spun down, mixed, and incubated for 30 minutes at room temperature. The cell plate was read using luminometer for firefly luminescence activity. Then, 20 μL of Duo-Glo® Step&Glo® Reagent (Promega) was added to each well of cell assay plate. The plate was briefly spun down, mixed, and incubated for 30 minutes at room temperature. The cell plate was read using luminometer for Renilla luminescence activity. Ratio of firefly: Renilla luminescence was calculated for each well. The compound well ratio was normalized to the ratio from a control well.
On the technique in general: In a reporter assay the amount or activity of a reporter protein is the signal.

Where [1] appears, read: firefly luminescence, read-out: Gli1 IC50 firefly.
Where [2] appears, read: ratio of firefly:Renilla luminescence, read-out: Gli1 IC50 firefly:Renilla ratio.

Like-named read-outs stand apart in the source and are kept apart here.

For `Clc1ccc2c(c1)CC(N1CCc3nc(-c4cccc(Cl)c4Cl)[nH]c3C1)CC2` (centres unmarked) [Example 21, 5-(7-chloro-1,2,3,4-tetrahydronaphthalen-2-yl)-2-(2,3-dichlorophenyl)-4,5,6,7-tetrahydro-3H-imidazo[4,5-c]pyridine], the IC50 under setting [1] lay within 500 to 990 nM and the IC50 under setting [2] fell in the range of 500 to 990 nM.
As to `Fc1ccc(-c2nc3c([nH]2)CN(C2CCc4ccc(Cl)cc4C2)CC3)c(Cl)c1` (centres unmarked) [Example 22, 5-(7-chloro-1,2,3,4-tetrahydronaphthalen-2-yl)-2-(2-chloro-4-fluorophenyl)-4,5,6,7-tetrahydro-3H-imidazo[4,5-c]pyridine], the IC50 by setting is: under setting [1], 500 to 990 nM; under setting [2], 100 to 490 nM.
In the same order, the values of `COc1ccc(-c2nc3c([nH]2)CN(C2CCc4ccc(Cl)cc4C2)CC3)c(Cl)c1` (centres unmarked) [Example 23, 5-(7-chloro-1,2,3,4-tetrahydronaphthalen-2-yl)-2-(2-chloro-4-methoxyphenyl)-4,5,6,7-tetrahydro-3H-imidazo[4,5-c]pyridine] are less than 100 nM and less than 100 nM.
In the same order, the values of `COc1ccc(Cl)c(-c2nc3c([nH]2)CN(C2CCc4ccc(Cl)cc4C2)CC3)c1` (centres unmarked) [Example 24, 5-(7-chloro-1,2,3,4-tetrahydronaphthalen-2-yl)-2-(2-chloro-5-methoxyphenyl)-4,5,6,7-tetrahydro-3H-imidazo[4,5-c]pyridine] are 100 to 490 nM and less than 100 nM.
In the case of `Clc1cc(Cl)c2c(c1)CCC(N1CCc3nc(-c4ccccc4Cl)[nH]c3C1)C2` (centres unmarked) [Example 25, 2-(2-chlorophenyl)-5-(6,8-dichloro-1,2,3,4-tetrahydronaphthalen-2-yl)-4,5,6,7-tetrahydro-3H-imidazo[4,5-c]pyridine], the IC50 runs as follows: under setting [1], 1000 to 50000 nM; under setting [2], 1000 to 50000 nM.
With `Clc1ccccc1-c1nc2c([nH]1)CN(C1CCc3cccc(Br)c3C1)CC2` (centres unmarked) [Example 26, 5-(8-bromo-1,2,3,4-tetrahydronaphthalen-2-yl)-2-(2-chlorophenyl)-4,5,6,7-tetrahydro-3H-imidazo[4,5-c]pyridine], the IC50 is, setting by setting: under setting [1], less than 100 nM; under setting [2], 100 to 490 nM.
For `Clc1ccccc1-c1nc2c([nH]1)CN(C1CCc3ccc(Br)cc3C1)CC2` (centres unmarked) [Example 27, 5-(7-bromo-1,2,3,4-tetrahydronaphthalen-2-yl)-2-(2-chlorophenyl)-4,5,6,7-tetrahydro-3H-imidazo[4,5-c]pyridine], the IC50 is 100 to 490 nM under setting [1] and less than 100 nM under setting [2].
In the same order, the values of `Clc1ccc2c(c1)CC(N1CCc3nc(-c4ccccc4Br)[nH]c3C1)CC2` (centres unmarked) [Example 28, 2-(2-bromophenyl)-5-(7-chloro-1,2,3,4-tetrahydronaphthalen-2-yl)-4,5,6,7-tetrahydro-3H-imidazo[4,5-c]pyridine] are 100 to 490 nM and 100 to 490 nM.
Regarding `Clc1ccc2c(c1)CC(N1CCc3nc(-c4ccc(Br)cc4Cl)[nH]c3C1)CC2` (centres unmarked) [Example 29, 2-(4-bromo-2-chlorophenyl)-5-(7-chloro-1,2,3,4-tetrahydronaphthalen-2-yl)-4,5,6,7-tetrahydro-3H-imidazo[4,5-c]pyridine], the IC50 reads like this: under setting [1], 500 to 990 nM; under setting [2], 100 to 490 nM.
In the same order, the values of `Clc1ccc2c(c1)CC(N1CCc3nc(-c4cc(Br)ccc4Cl)[nH]c3C1)CC2` (centres unmarked) [Example 30, 2-(5-bromo-2-chlorophenyl)-5-(7-chloro-1,2,3,4-tetrahydronaphthalen-2-yl)-4,5,6,7-tetrahydro-3H-imidazo[4,5-c]pyridine] are 1000 to 50000 nM and 500 to 990 nM.
In the same order, the values of `Clc1ccccc1-c1nc2c([nH]1)CN(C1CCc3cc(C4CC4)ccc3C1)CC2` (centres unmarked) [Example 31, 2-(2-chlorophenyl)-5-(6-cyclopropyl-1,2,3,4-tetrahydronaphthalen-2-yl)-4,5,6,7-tetrahydro-3H-imidazo[4,5-c]pyridine] are 1000 to 50000 nM and 500 to 990 nM.
Turning to `Cc1cn(-c2ccc3c(c2)CCC(N2CCc4nc(-c5ccccc5Cl)[nH]c4C2)C3)cn1` (centres unmarked) [Example 32, 2-(2-chlorophenyl)-5-(6-(4-methyl-1H-imidazol-1-yl)-1,2,3,4-tetrahydronaphthalen-2-yl)-4,5,6,7-tetrahydro-3H-imidazo[4,5-c]pyridine], the IC50 under setting [1] fell in the range of 1000 to 50000 nM and the IC50 under setting [2] is 1000 to 50000 nM.
For `Clc1ccccc1-c1nc2c([nH]1)CN(C1CCc3ccc(C4CC4)cc3C1)CC2` (centres unmarked) [Example 34, 2-(2-chlorophenyl)-5-(7-cyclopropyl-1,2,3,4-tetrahydronaphthalen-2-yl)-4,5,6,7-tetrahydro-3H-imidazo[4,5-c]pyridine], the IC50 reads like this: under setting [1], 100 to 490 nM; under setting [2], 100 to 490 nM.
With `Clc1ccccc1-c1nc2c([nH]1)CN(C1CCc3ccc(C#CC4CC4)cc3C1)CC2` (centres unmarked) [Example 35, 2-(2-chlorophenyl)-5-(7-(cyclopropylethynyl)-1,2,3,4-tetrahydronaphthalen-2-yl)-4,5,6,7-tetrahydro-3H-imidazo[4,5-c]pyridine], the IC50 reads like this: under setting [1], 1000 to 50000 nM; under setting [2], 1000 to 50000 nM.
`Clc1ccccc1-c1nc2c([nH]1)CN(C1CCc3cccc(C4CC4)c3C1)CC2` (centres unmarked) [Example 36, 2-(2-chlorophenyl)-5-(8-cyclopropyl-1,2,3,4-tetrahydronaphthalen-2-yl)-4,5,6,7-tetrahydro-3H-imidazo[4,5-c]pyridine]: the IC50 is 1000 to 50000 nM under setting [1] and 500 to 990 nM under setting [2].
The like results for `Clc1ccc2c(c1)CC(N1CCc3nc(-c4ccc(C5CC5)cc4Cl)[nH]c3C1)CC2` (centres unmarked) [Example 37, 5-(7-chloro-1,2,3,4-tetrahydronaphthalen-2-yl)-2-(2-chloro-4-cyclopropylphenyl)-4,5,6,7-tetrahydro-3H-imidazo[4,5-c]pyridine] were, in that order, less than 100 nM and less than 100 nM.
For `Clc1cccc(-c2nc3c([nH]2)CN(C2CCc4ccc(Cl)cc4C2)CC3)c1` (centres unmarked) [Example 42, 5-(7-chloro-1,2,3,4-tetrahydronaphthalen-2-yl)-2-(3-chlorophenyl)-4,5,6,7-tetrahydro-3H-imidazo[4,5-c]pyridine], the IC50 was 1000 to 50000 nM under setting [1] and 1000 to 50000 nM under setting [2].
Turning to `Clc1ccccc1-c1nc2c([nH]1)CN(C1Cc3ccccc31)CC2` (centres unmarked) [Example 43, 5-(bicyclo[4.2.0]octa-1(6),2,4-trien-7-yl)-2-(2-chlorophenyl)-4,5,6,7-tetrahydro-3H-imidazo[4,5-c]pyridine], the IC50 is, setting by setting: under setting [1], greater than 30000 nM; under setting [2], 1000 to 50000 nM.
In the same order, the values of `Fc1cccc(-c2nc3c([nH]2)CN(C2CCc4ccc(F)cc4C2)CC3)c1` (centres unmarked) [Example 51, 5-(7-fluoro-1,2,3,4-tetrahydronaphthalen-2-yl)-2-(3-fluorophenyl)-4,5,6,7-tetrahydro-3H-imidazo[4,5-c]pyridine] are 1000 to 50000 nM and 1000 to 50000 nM.
The like results for `Fc1ccccc1-c1nc2c([nH]1)CN(C1CCc3ncccc3C1)CC2` (centres unmarked) [Example 55, 6-(2-(2-fluorophenyl)-3,4,6,7-tetrahydro-5H-imidazo[4,5-c]pyridin-5-yl)-5,6,7,8-tetrahydroquinoline] were, in that order, 1000 to 50000 nM and 1000 to 50000 nM.
In the same order, the values of `Fc1ccccc1-c1nc2c([nH]1)CN(C1CCc3cc(Cl)ccc3C1)CC2` (centres unmarked) [Example 70, 5-(6-chloro-1,2,3,4-tetrahydronaphthalen-2-yl)-2-(2-fluorophenyl)-4,5,6,7-tetrahydro-3H-imidazo[4,5-c]pyridine] are 1000 to 50000 nM and 1000 to 50000 nM.
For `Fc1cc2c(cc1F)CC(N1CCc3nc(-c4ccccc4F)[nH]c3C1)CC2` (centres unmarked) [Example 72, 5-(6,7-difluoro-1,2,3,4-tetrahydronaphthalen-2-yl)-2-(2-fluorophenyl)-4,5,6,7-tetrahydro-3H-imidazo[4,5-c]pyridine], the IC50 fell in the range of 1000 to 50000 nM under setting [1] and 1000 to 50000 nM under setting [2].
In the case of `Fc1cc(F)c2c(c1)CC(N1CCc3nc(-c4ccccc4F)[nH]c3C1)CC2` (centres unmarked) [Example 73, 5-(5,7-difluoro-1,2,3,4-tetrahydronaphthalen-2-yl)-2-(2-fluorophenyl)-4,5,6,7-tetrahydro-3H-imidazo[4,5-c]pyridine], the IC50 is, setting by setting: under setting [1], greater than 30000 nM; under setting [2], greater than 30000 nM.
Turning to `Clc1cccnc1-c1nc2c([nH]1)CN(C1CCc3cccc(Cl)c3C1)CC2` (centres unmarked) [Example 77, 5-(8-chloro-1,2,3,4-tetrahydronaphthalen-2-yl)-2-(3-chloropyridin-.2-yl)-4,5,6,7-tetrahydro-3H-imidazo[4,5-c]pyndine], the IC50 reads like this: under setting [1], 1000 to 50000 nM; under setting [2], 1000 to 50000 nM.
Take `Clc1cccc2c1CC(N1CCc3nc(-c4ccccn4)[nH]c3C1)CC2` (centres unmarked) [Example 78, 5-(8-chloro-1,2,3,4-tetrahydronaphthalen-2-yl)-2-(pyridin-2-yl)-4,5,6,7-tetrahydro-3H-imidazo[4,5-c]pyridine]: the IC50 was in the range of 1000 to 50000 nM under setting [1] and 1000 to 50000 nM under setting [2].
